For 80 compounds, RP-LC retention time results are on record in the METLIN SMRT retention time set (Domingo-Almenara et al. 2019).

Each structure is given as a SMILES string.

A short description of this series: gradient 5% acetonitrile 3 min, to 50% in 2 min, to 85% in 15 min, held 3 min, 100 µL/min. Conditions: column: Zorbax Extend-C18 2.1 x 50 mm; eluents: water / acetonitrile, 0.1% formic acid. The method, boiled down:
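A Zorbax Extend-C18 column (2.1 × 50 mm, 1.8 μm) run at 100 μL/min with water and acetonitrile, both containing 0.1% formic acid, separated mixtures of ~100 pure standards. The HPLC was coupled to a quadrupole time-of-flight mass spectrometer operated in positive and negative ionization mode, with dead and dwell volumes of 40 μL and 900 μL. Each retention time was taken from a computationally picked adduct peak that was then manually inspected.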
Consider `Cc1noc2nc(CCC(=O)NCCCc3ccccc3)nc(N3CCCC3)c12`, for which the RP-LC retention time came to 765 s. `Cc1cccc(-n2c(=O)c3c(cc(C)n3C)n(CC(=O)Nc3ccc(Br)cc3F)c2=O)c1` showed an RP-LC retention time of 963 s. Take `O=C(CCc1c(-c2ccc(F)cc2)nc2ccccn12)N1CCC2(CC1)OCCO2`: the RP-LC retention time turned out to be 615 s.

Take `CC(C)Cn1c(=O)c(C(=O)NCc2ccccc2F)nc2cccnc21`: the RP-LC retention time is 868 s.

Regarding `O=C(Cn1cnc2nc(N3CCC(C(=O)NC4CC4)CC3)sc2c1=O)NCc1ccco1`, the RP-LC retention time is 610 s. The value for `CCOc1ccc(N2CC(NC(=O)Nc3ccc(OC(F)F)cc3)CC2=O)cc1` (stereo not given) was 754 s. Take `CN1C(=O)N(C)C2(CCN(C(=O)Cc3ccc(Cl)cc3)CC2)C1=O`: the RP-LC retention time was 686 s. For `Cc1nn(-c2ccc(C(=O)N3CCN(C(=O)c4ccco4)CC3)cc2)c2c1C(=O)CCC2` the value was 664 s. For `CCCOc1nc2ccccc2nc1N1CCCC(C(=O)Nc2cccc(CC)c2)C1` (stereo not given) the value was 1260 s; for `CC1CCC2(CC1)NC(=O)N(CC(=O)Nc1ccc3c(c1)OCCO3)C2=O` (stereo not given), 783 s; for `CCCNC(=O)C1CCCN1S(=O)(=O)c1cc(C(=O)OCC)n(C)c1` (stereo not given), 762 s.

With `O=C(Cn1cnc2nc3c(cc2c1=O)CCCC3)NCCCN1CCc2ccccc2C1`, the RP-LC retention time stood at 864 s. Compound `CC1CCCCN1CCCNC(=O)Cn1ccc2cc(S(=O)(=O)N3CCCCC3)ccc21` (stereo not given) came in with an RP-LC retention time of 670 s.

Compound `COc1ccc(CC(=O)N2CCC[C@@H]2C(=O)NCc2csc(-c3ccccc3)n2)c(Cl)c1` returned an RP-LC retention time of 880 s. The value for `CCOC(=O)c1noc2ncnc(NCCN(CC)c3cccc(C)c3)c12` was 946 s.

In turn, `Cc1ccc(CN2N=C(C(=O)N3CCOCC3)S(=O)(=O)c3ccc(Cl)cc32)cc1` yielded an RP-LC retention time of 896 s. The value for `CN1C(=O)c2cccn2CC1C(=O)Nc1ccc(F)cc1F` (stereo not given) was 696 s; that for `CCOc1ccc(S(=O)(=O)NC2CC(=O)N(C3CC3)C2)cc1` (stereo not given) was 652 s; that for `CSc1ccc(-c2noc(Cc3nnc(-c4ccc(F)cc4)o3)n2)cc1` was 1070 s. For `CCOc1ccc(OCC)c(NC(=O)C2CCN(S(=O)(=O)c3cn(C(C)C)cn3)CC2)c1` the value was 888 s. With `Cc1cc(C)n2nc(SCC(=O)N(c3ccccc3)c3ccccc3)nc2n1`, the RP-LC retention time amounted to 824 s. The value for `CCCn1ccc2sc(C)c(C(=O)NCc3cccc(OC)c3)c2c1=O` was 856 s. With `CCC(C(=O)Nc1cc(-c2nc3ccccc3[nH]2)ccc1C)c1ccccc1` (stereo not given), the RP-LC retention time was 755 s. `CCOC(=O)Cc1csc(NC(=O)CSc2nnc(-c3ccncc3)o2)n1` returned an RP-LC retention time of 632 s. For `COCCN1C(=O)c2cccn2CC1CNC(=O)c1ccc(Cc2c(C)noc2C)o1` (stereo not given) the value was 679 s. The compound `O=C(NCCc1cccs1)C1CCCN(c2nccn3nc(-c4ccccc4Cl)cc23)C1` (stereo not given) came in with an RP-LC retention time of 947 s.

For `CCCN1C(=O)C(CC(=O)NCC2CCCO2)Sc2ncccc21` (stereo not given), the RP-LC retention time was determined as 663 s. Compound `Cc1oc(-c2ccc(NC(=O)C3CCCC3)cc2)nc1Cn1cccn1` registered an RP-LC retention time of 859 s. For `CCCNC(=O)c1ccc2nc(CCc3ccc(NC(=O)CCC)cc3)[nH]c2c1` the value was 617 s; for `CCN(CC)CCNC(=O)Cc1c(C)nc2c(-c3ccc(F)cc3)c(C)nn2c1C`, 661 s. For `COC(=O)Cn1c(C2CC(=O)N(Cc3ccccc3)C2)nc2ccccc21` (stereo not given) the value was 770 s. For `O=C(c1cccc(Cl)c1)N(CCS(=O)(=O)N1CCNCC1)CC1CCCO1` (stereo not given) the value was 618 s; for `CC(=O)Nc1nc2ccc(CC(=O)Nc3cccc(Cl)c3)cc2s1`, 790 s; for `COC(=O)C(C)NC(=O)N1CCN(c2nc3ccccc3n(Cc3ccccc3)c2=O)CC1` (stereo not given), 869 s. The compound `O=C(NCc1ccc(Br)cc1)C1CCN(C(=O)C2Sc3ccccc3NC2=O)CC1` (stereo not given) came in with an RP-LC retention time of 782 s. `O=C(c1ccc(OC(F)(F)F)cc1)N1C[C@@H]2C[C@H]1C[C@@H]2NS(=O)(=O)c1cccnc1` had an RP-LC retention time of 761 s.

For `Cc1ccc(C2Cn3nnc(-c4nc(-c5ccc(F)c(F)c5)no4)c3CO2)c(C)c1` (stereo not given), the RP-LC retention time was determined as 1230 s.

Compound `O=C(Nc1ccc(F)cc1)c1c(O)c2cccnc2n(-c2ccc(F)cc2)c1=O` had an RP-LC retention time of 1200 s.

In turn, `Cc1ccc(CNC(=O)c2nnc(-c3ccc(S(=O)(=O)N4CCC(C)CC4)cc3)o2)o1` had an RP-LC retention time of 923 s.

On to `CCC(C)NC(=O)CN1C(=O)CSc2c1c(C)nn2-c1ccccc1` (stereo not given), for which the RP-LC retention time is 764 s. The value for `CC1CCN(c2nn(CC(=O)Nc3cccc(C(C)C)c3)c(=O)c3ccccc23)CC1` was 1320 s; that for `O=C(NCc1ccco1)C1CCCN(S(=O)(=O)c2c[nH]c(C(=O)N3CCCCCC3)c2)C1` (stereo not given) was 771 s; that for `CCOc1ccc(S(=O)(=O)N2CCc3c(c(-c4nnc(-c5ccc(F)cc5)o4)nn3C)C2)cc1` was 1000 s. For `COc1ccc(CSc2nccc3c2ccn3CC(=O)NCc2ccc(C)o2)cc1` the value was 725 s; for `CCCNC(=O)N(C1CCOCC1)C1CCN(C(=O)Cc2ccsc2)CC1`, 703 s. `CCS(=O)(=O)N1CCCc2cc(C(=O)NC(C)c3ccccc3)ccc21` (stereo not given): the RP-LC retention time is 870 s. For `O=C(c1cncc(Br)c1)N1CCC(OCC2CC2)C1` (stereo not given) the value was 730 s. For `COc1ccc(CCNC(=O)N2CC3CC2C(=O)O3)cc1` (stereo not given) the value was 625 s; for `CCOCCCNC(=O)c1cc2n(n1)CCCN(Cc1ccc(Cl)cc1)C2=O`, 797 s; for `CCOc1ccc(Cn2c(=O)c3sccc3n(Cc3nc(-c4cccc(C)c4)no3)c2=O)cc1`, 1180 s. Compound `Cc1ccc2c(c1)N(Cc1nc(-c3ccc(F)c(Cl)c3)no1)C(=O)CO2` registered an RP-LC retention time of 1200 s. The value for `CCOC(=O)C(=O)NCC1CN(c2ccccc2)C(=O)O1` (stereo not given) was 647 s. `CCN1c2ccc(F)cc2C(=O)NC12CCN(C(=O)Cc1ccccc1Cl)CC2`: the RP-LC retention time stood at 863 s. Turning to `COc1ccc(-c2nc(-c3ccc4c(c3)ncn4CCC(=O)N3CCCC3)no2)cc1OC`, the RP-LC retention time is 776 s.

In the case of `O=C(NC1CCCCCC1)c1cc(NS(=O)(=O)c2ccc(Cl)cc2)cnc1N1CCNCC1`, the RP-LC retention time is 698 s. Take `CNC(=O)c1cc(C)n(C)n1`: the RP-LC retention time was found to be 835 s. `CN1c2ccccc2C(=O)NC12CCN(C(=O)Nc1ccccc1F)CC2` came in with an RP-LC retention time of 695 s. As for `COc1ccc(N(Cc2nnc3n2CCCCC3)C(=O)Nc2ccccc2)c(OC)c1`, the RP-LC retention time amounted to 713 s. `O=C(NC1CCN(c2cc(-c3ccc(F)cc3)[nH]n2)C1)c1ccc(Br)cc1` (stereo not given) came in with an RP-LC retention time of 864 s.

Compound `Cc1cc2nn(CC(=O)NCc3ccccc3)c(=O)n2c(Nc2ccc(C)c(F)c2)n1` gave an RP-LC retention time of 1060 s.

`CCCCNC(=O)NC1CCS(=O)(=O)C1` (stereo not given) came in with an RP-LC retention time of 571 s. For `CCCN1C(=O)COc2ccc(-c3noc(CNC(=O)c4ccc(C)cc4)n3)cc21` the value was 930 s; for `C=CCNC(=O)c1nc(C(=O)N2CCN(c3ccccn3)CC2)cs1`, 567 s. Regarding `O=C(CN1C(=O)C2CCCCN2c2ccc(S(=O)(=O)N3CCCC3)cc21)NCC1CCCO1` (stereo not given), the RP-LC retention time came out at 771 s. The value for `Cc1cccc(-n2c(=O)c3sccc3n(Cc3nc(-c4ccccc4)no3)c2=O)c1` was 1010 s; that for `Cc1ccc(CN(C(=O)C(C)Oc2ccc(Cl)c(C)c2)C2CCS(=O)(=O)C2)o1` (stereo not given) was 1020 s.

Regarding `CCCCOc1ccc(C(=O)Nc2cccc3c2C(=O)NC3=O)cc1`, the RP-LC retention time amounted to 1020 s.

The compound `Cc1cnc(-c2cccnc2)n1CC1CNC1` showed an RP-LC retention time of 508 s.

For `CCCCNC(=O)c1ccc2c(c1)NC(=O)C(C(C)C)N2` (stereo not given), the RP-LC retention time was 684 s. In the case of `O=C(CSc1ncn[nH]1)c1ccc2c(c1)OCCO2`, the RP-LC retention time was 626 s. Take `COc1ccc2oc(-c3noc(C4CC(=O)N(c5ccccc5)C4)n3)c(C)c2c1` (stereo not given): the RP-LC retention time is 1040 s.

For `Cc1ccc(-c2nc3cnccn3c2NCCC(=O)NC(C)C)cc1`, the RP-LC retention time came out at 618 s. As for `COCCn1cc(CCNC(=O)Nc2cccc(Cl)c2)c2cccnc21`, the RP-LC retention time is 762 s. `Clc1ccc(CNc2c(-c3ccc4c(c3)OCCO4)nc3ncccn23)cc1` yielded an RP-LC retention time of 722 s.

As to `CCOc1ccccc1NC(=O)N1CCCC1c1cc(CC)no1` (stereo not given), the RP-LC retention time was found to be 833 s. The value for `CCOc1ccccc1CN1C[C@@H]2C(=O)N(C)C(=O)[C@@H]2C1` was 595 s. The value for `CC1CCN(S(=O)(=O)c2ccc(-c3nnc(C(=O)NCCCN4CCCCCC4)o3)cc2)CC1` was 712 s.

`CCCCN1CCN(C(=O)c2ccc(-c3ccnc(N4CCCC4)n3)cc2)CC1`: the RP-LC retention time was found to be 573 s.

In turn, `O=C(COc1ccc(F)cc1)N1CCC(c2noc(C3CC3)n2)C1` (stereo not given) yielded an RP-LC retention time of 791 s. For the compound `CCC1CN2C=NC(N3CCN(S(=O)(=O)Cc4cccc(F)c4)CC3)=CC2=N1` (stereo not given), the RP-LC retention time came to 680 s.
